Source: US20220395500A1, “SMALL MOLECULE ACTIVATORS OF INTERFERON REGULATORY FACTOR 3 AND METHODS OF USE THEREOF” (Neuralexo, Inc., priority 2020, published 2022)
Like-named read-outs stand apart in the source and are kept apart here.

Columns and labels:
[1] = J774-Dual cytotoxicity; format: cell-based, mouse; details: mouse, J774-Dual cells, read-out: J774 cytotox CC50
How it was run: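 Orthogonal cross-species screen in mouse J774-Dual cells using 8-point dose-response format. Cytotoxicity measured in-plate by CellTiter-Glo luminescence, giving CC50 alongside EC50 and ISRE:NFκB ratios.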

[2] = tested on: NF-κB-SEAP reporter in J774-Dual cells; experiment: J774-Dual NF-κB-SEAP reporter assay; format: cell-based, mouse; details: read-out: J774 NFkB EC50
Experimental: First, optimal assay conditions and assay quality in 384-well format were determined. As mentioned, the mouse macrophage J774 cell line (J774-Dual, InvivoGen) stably transfected with the same inducible reporters described above (e.g., IRF-Lucia luciferase and NF-κB-SEAP) was used. The responsiveness of the J774-Dual cell line was investigated in an array of assay conditions to obtain sensitive and reproducible results for the activation of the IRF and NF-κB reporters. An optimal plating density and conditions for these cells was established for these cells in a 384-well format. Assay work-flow is similar to that discussed above for the THP1-Dual assay without a need for cell differentiation. Thus, cells are seeded directly in growth medium and incubated at 37° C. in a 5% C02 incubator for 24 hours prior to the programmed treatments being added as described herein.
The primary high throughput screen used the HTS platform of human THP1 monocyte cells containing the IRF-Lucia luciferase and NFκB-SEAP (secreted embryonic alkaline phosphatase) dual reporter (THP1-Dual, Invivogen), enabling the simultaneous study of the IRF and NFκB signaling pathways respectively. As discussed, the Lucia luciferase reporter gene is under the control of an ISG54 (interferon-stimulated gene) minimal promoter in conjunction with five interferon-stimulated response elements (ISRE). The SEAP gene is driven by an IFNβ minimal promoter fused to five copies of the NFκB consensus transcriptional response element and three copies of the c-Rel binding site. Both IRF-Lucia luciferase and NFκB-SEAP reporter proteins are secreted and readily measurable in the cell culture supernatant when using QUANTI-Luc™ and QUANTI-Blue™ detection reagents, respectively. Identified “hits” were confirmed in a secondary screen with an 8-point dose response curve. Hits were further screened for activity in the mouse using the mouse J774 macrophage-like cell line containing the identical reporter constructs (J774-Dual, Invivogen).
The OTRADI Small Molecule Library of approximately 246,000 diverse compounds (see below for description) was screened using the THP1-Dual based HTS platform described above. All transfer steps in the screen are fully automated, thus reducing variability. Primary screening included a single data point or dose for each molecule. After data normalization was applied for each assay run, “hit” selection was performed on the plates that pass the quality control (QC) criterion. Hits were defined as samples having values above the activity cutoff determined based on noise level of the assay to reduce false positive rates. In the pilot study discussed above this activity value was >3σ above the ISRE mean with the added criteria of NFκB activation being lower than […] from the mean to identify IRF selective compounds. The ratio of ISRE:NFκB activity was also calculated as a selectivity index for prioritizing hit selection. Primary hits underwent secondary screening to determine the 50% effective concentration (EC50) and 50% cytotoxic concentration (CC50) of these agents using an 8-point dose-response curve in the human THP1-Dual cells. Cytotoxicity was measured in the plate using Cell Titer Glo (Promega). Identified candidate compounds were further screened (orthogonal screen) for cross species activity in the validated mouse J774-Dual assay using an 8-point dose-response format to determine EC50 and CC50 values as well as ISRE:NFκB ratios. A general process flow for the experimental design laid out above is depicted at FIG. 12.

[3] = THP1-Dual cytotoxicity (Cell Titer Glo, ATP); format: cell-based, human; details: human, THP1-Dual cells, read-out: Thp1 cytotox CC50
How it was run: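 Human THP1-Dual cells were treated across an 8-point dose-response range. Cytotoxicity was measured in-plate by CellTiter-Glo luminescence, which quantifies ATP as a marker of metabolically active cells, and CC50 was taken as the 50% cytotoxic concentration.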

[4] = Mus musculus, J774, Mouse Reporter Cell Line, 8-point dose response
[5] = Mus musculus, J774, Mouse Reporter Cell Line J774

SMILES | CC50 ([1]; Mouse Reporter Cell Line) [µM] | EC50 [2, 4] [µM] | CC50 ([3]; Human Reporter Cell Line) [µM] | CC50 ([1]; Mouse Reporter Cell Line J774) [µM] | CC50 ([3]; Human Reporter Cell Line THP1) [µM] | EC50 [2, 5] [µM] | EC50 ([2]; Mouse Reporter Cell Line J774) [µM]
O=C(Nc1ccc(N2CCN(C(=O)c3ccsc3)CC2)cc1)c1ccc(OCc2ccccc2)nc1 [NA-1] | 13.7 | ~3.19 | 10.5 | – | – | – | –
Cc1ccc(-c2nc3ccccc3s2)cc1NC(=O)c1cccc(Cl)c1 [ND-80] | – | – | – | > 25 | 33.9 | – | –
O=C(Nc1ccc(N2CCN(C(=O)c3cccs3)CC2)cc1)c1ccc(Cl)c2ccccc12 [NA13] | > 25 | ~2.86 | > 25 | – | – | – | –
O=C(Nc1ccc(N2CCN(C(=O)c3cccs3)CC2)cc1)c1ccc(OCc2cccc(Cl)c2)cc1 [NA-33] | 25.5 | 3.81 | 9.58 | – | – | – | –
Cc1ccc(NC(=O)c2cc(NC(=O)c3ccccc3)ccc2N2CCOCC2)cc1Cl [NB-1] | – | – | – | > 111 | 32.8 | 19.9 | –
Cc1ccc(NC(=O)c2cc(NC(=O)c3cccs3)ccc2N2CCOCC2)cc1Cl [NB-8] | – | – | – | > 25 | > 25 | – | –
O=C(Nc1ccc(N2CCN(C(=O)c3cccs3)CC2)cc1)c1ccc(OCc2ccccc2)nc1 [NA-59] | 36.1 | 4.37 | 16 | – | – | – | –
O=C(Nc1ccc(N2CCN(C(=O)c3cccs3)CC2)cc1)c1sc2cc(Cl)ccc2c1Cl [NA-20] | 43.6 | ~4.75 | 11.8 | – | – | – | –
O=C(Nc1ccc(N2CCN(C(=O)c3cccs3)CC2)cc1)c1ccc(OCc2ccc(F)c(F)c2F)cc1 [NA-23] | 22.1 | ~2.53 | 12.7 | – | – | – | –
CCOc1cccc(COc2ccc(C(=O)Nc3ccc(N4CCN(C(=O)c5cccs5)CC4)cc3)cc2)c1 [NA42, 4-((3-ethoxybenzyl)oxy)-N-(4-(4-(thiophene-2-carbonyl)piperazin-1-yl)phenyl)benzamide] | 37.2 | 5.36 | 121 | – | – | – | –
CC(C)CC(=O)Nc1ccc2oc(-c3cccc(I)c3)nc2c1 [ND-5] | – | – | – | > 25 | > 25 | – | –
Cc1cc(NC(=O)c2sc3cc(Cl)ccc3c2Cl)ccc1NC(=O)c1ccco1 [NC-2] | > 25 | – | > 25 | – | – | – | –
COc1ccc(C(=O)Nc2cc(-c3nc4ccccc4s3)ccc2C)cc1[N+](=O)[O-] [ND-38] | – | – | – | – | – | – | 12
COc1ccc(C(=O)Nc2nc(-c3cc4ccccc4oc3=O)cs2)cc1 [ND-1] | – | – | – | > 25 | > 25 | 8.75 | –
Cc1ccc(NC(=O)c2cc(NC(=O)c3cccs3)ccc2N2CCOCC2)cc1 [NB-17] | – | – | – | > 25 | > 25 | 8.79 | –
COc1ccc(C(=O)Nc2cc(-c3nc4ccccc4s3)ccc2C)cc1[N+](=O)[O-] [ND52, N-[5-(1,3-benzothiazol-2-yl)-2-methylphenyl]-4-methoxy-3-nitrobenzamide] | – | – | – | – | 27.6 | 7.53 | –
O=C(Nc1ccc(N2CCN(C(=O)c3cccs3)CC2)cc1)c1ccc(-c2ccncc2)cc1 [NA-38] | > 25 | – | > 25 | – | – | – | –
O=C(Nc1ccc(N2CCN(C(=O)c3cccs3)CC2)cc1)c1ccc(-c2ccccc2)cn1 [NA-39] | > 25 | – | > 25 | – | – | – | –
COc1ccc(C(=O)Nc2cc(-c3nc4cc(C(C)C)ccc4o3)ccc2C)cc1[N+](=O)[O-] [ND-2] | – | – | – | 65.8 | 27.6 | 11.4 | –

SMILES | CC50 ([1]; Mouse Reporter Cell Line) [µM] | EC50 [2, 4] [µM] | CC50 ([3]; Human Reporter Cell Line) [µM] | CC50 ([1]; Mouse Reporter Cell Line J774) [µM] | CC50 ([3]; Human Reporter Cell Line THP1) [µM] | EC50 [2, 5] [µM] | EC50 ([2]; Mouse Reporter Cell Line J774) [µM]
CCOc1ccc(C(=O)Nc2ccc(N3CCN(C(=O)c4cccs4)CC3)cc2)cc1Br [NA-30] | 40.7 | – | 18.8 | – | – | – | –
ClCCCOc1ccc(-c2nc3cc(OCCCN4CCCC4)ccc3o2)cc1 [ND-94] | – | – | – | > 25 | > 25 | – | –
COc1cccc(COc2ccc(C(=O)Nc3ccc(N4CCN(C(=O)c5cccs5)CC4)cc3)cc2)c1 [NA-24, 4-((3-methoxybenzyl)oxy)-N-(4-(4-(thiophene-2-carbonyl)piperazin-1-yl)phenyl)benzamide] | 36.2 | – | 16.8 | – | – | – | –
O=C(Nc1ccc(N2CCN(C(=O)c3cccs3)CC2)cc1)c1ccc(-c2ccccc2)nc1 [NA-41] | > 25 | – | > 25 | – | – | – | –
O=C(Nc1ccc(N2CCN(C(=O)c3cccs3)CC2)cc1)c1cccc2c(Br)cccc12 [NA-21, 5-bromo-N-{4-[4-(2-thienylcarbonyl)-1-piperazinyl]phenyl}-1-naphthamide] | 63.8 | 1.05 | 39.4 | – | – | – | –
COCOc1ccc2oc(-c3ccc(C)c([N+](=O)[O-])c3)nc2c1 [ND-96] | – | – | – | > 25 | 30.1 | – | –
COc1ccc(C(=O)Nc2ccc(OCc3ccccc3)cc2)cc1[N+](=O)[O-] [NA-44] | > 25 | 7.65 | 50.3 | – | – | – | –
COCOc1ccc2oc(-c3ccc(C)c(NC(=O)c4ccc(OC)c([N+](=O)[O-])c4)c3)nc2c1 [ND-95, 4-methoxy-N-(5-(5-(methoxymethoxy)benzo[d]oxazol-2-yl)-2-methylphenyl)-3-nitrobenzamide] | – | – | – | > 25 | 26.7 | 3.01 | –
COc1ccc(C(=O)Nc2cc(-c3nc4cc(C)c(C)cc4o3)ccc2C)cc1[N+](=O)[O-] [ND13, N-(5-(5,6-dimethylbenzo[d]oxazol-2-yl)-2-methylphenyl)-4-methoxy-3-nitrobenzamide] | – | – | – | 4.32 | 8.76 | 1.32 | –
O=C(Cc1ccc(Cl)cc1)Nc1cccc(-c2nnc(-c3ccco3)o2)c1 [ND-7] | – | – | – | > 25 | > 25 | 30.6 | –
Cc1ccc(COc2ccc(C(=O)Nc3ccc(N4CCN(C(=O)c5cccs5)CC4)cc3)cc2)cc1 [NA-25] | > 25 | 8.15 | 35.5 | – | – | – | –
O=C(Nc1ccc(N2CCN(C(=O)c3cccs3)CC2)cc1)c1ccc(Br)cc1 [NA-14] | > 25 | – | > 25 | – | – | – | –
COc1ccc(C(=O)Nc2cccc(-c3nc4ncccc4o3)c2)cc1Br [ND-47] | – | – | – | > 25 | > 25 | 9.71 | –
Cc1ccc(NC(=O)c2cc(NC(=O)Cc3ccccc3)ccc2N2CCOCC2)cc1Cl [NB-3] | – | – | – | > 25 | 52.5 | – | –
Cc1ccc(NC(=O)c2cc(NC(=O)c3cccs3)ccc2N2CCOCC2)cc1Br [NB-23] | – | – | – | 36.9 | 30.5 | 9.53 | –
COc1ccc(-c2nc3cc(C(C)C)ccc3o2)cc1NC(=O)c1ccc(C)c([N+](=O)[O-])c1 [ND-16] | – | – | – | > 25 | 32.7 | 6.75 | –
Cc1c(Br)ccc(C(=O)Nc2ccc(N3CCN(C(=O)c4cccs4)CC3)cc2)c1C [NA-16] | > 25 | 12.9 | > 25 | – | – | – | –
O=C(Nc1ccc(N2CCOCC2)c(C(=O)Nc2ccc(OCc3ccccc3)cc2)c1)c1cccs1 [NB-18] | – | – | – | > 25 | > 25 | – | –
O=C(Nc1ccc(N2CCN(C(=O)c3cccs3)CC2)cc1)c1ccc(-c2cc3ccccc3oc2=O)cc1 [NA-32] | 67.2 | – | 36.6 | – | – | – | –
